According to the supplement of paper PMC13380429:

What was measured:
HepG2 [1] = experiment: drug sensitivity score (DSS) for viability; higher = more toxic; extreme values may be limits of the assay; details: 72 h
U2OS [2] = experiment: as above; details: 72 h
Calu-3 [3] = experiment: as above; details: 72 h
Vero E6 [4] = experiment: as above; details: 72 h
Caco-2 [5] = experiment: as above; details: 72 h
[6] = tested on: A549-ACE2 infected with SARS-CoV-2; experiment: morphology score (similarity to uninfected cells); higher = more like uninfected cells; details: 24 h
[7] = tested on: A549-ACE2 infected with SARS-CoV-2; experiment: SARS-CoV-2 infection rate relative to DMSO; higher = more infection; details: 24 h
A549-ACE2 [8] = experiment: phospholipidosis EC50; higher = less potent phospholipidosis inducer
A549-ACE2 [9] = experiment: drug-induced phospholipidosis relative to tamoxifen; higher = more phospholipidosis
HepG2 [10] = experiment: cell viability relative to DMSO; higher = less toxic; details: 72 h
U2OS [11] = experiment: as above; details: 72 h
Calu-3 [12] = experiment: as above; details: 72 h
Vero E6 [13] = experiment: as above; details: 72 h
Caco-2 [14] = experiment: as above; details: 72 h
[15] = tested on: A549-ACE2 infected with SARS-CoV-2; experiment: cell count relative to DMSO; higher = less toxic; details: 24 h
HepG2 [16] = experiment: relative viability EC50 (midpoint between 100% and the lowest measured viability); higher = less toxic; details: 72 h
U2OS [17] = experiment: as above; details: 72 h
Calu-3 [18] = experiment: as above; details: 72 h
Vero E6 [19] = experiment: as above; details: 72 h
Caco-2 [20] = experiment: as above; details: 72 h

CN1CCN(Cc2ccc(-c3cnc4[nH]cc(-c5ccc6[nH]ccc6c5)c4c3)cc2)CC1 [URMC-099]
Details	drug sensitivity score	relative viability EC50 [µM]
Caco-2 [5]	4.4	–
Caco-2 [20]	–	3.71
Calu-3 [3]	0	–
Calu-3 [18]	–	> 10
HepG2 [1]	7	–
HepG2 [16]	–	2.23
U2OS [2]	6	–
U2OS [17]	–	2.79
Vero E6 [4]	5.1	–
Vero E6 [19]	–	3.45

Details	SARS-CoV-2 infection rate [%]	cell count [%]	cell viability [%]	morphology score	phospholipidosis EC50 [µM]
A549-ACE2 [8], 24 h	–	–	–	–	1.07
A549-ACE2 [8], 48 h	–	–	–	–	4.29
A549-ACE2 [8], 72 h	–	–	–	–	8.25
Caco-2 [14], 1 nM	–	–	103	–	–
Caco-2 [14], 10 nM	–	–	107	–	–
Caco-2 [14], 100 nM	–	–	104	–	–
Caco-2 [14], 1000 nM	–	–	111	–	–
Caco-2 [14], 10000 nM	–	–	7.8	–	–
Calu-3 [12], 1 nM	–	–	93.1	–	–
Calu-3 [12], 10 nM	–	–	100	–	–
Calu-3 [12], 100 nM	–	–	95.3	–	–
Calu-3 [12], 1000 nM	–	–	128	–	–
Calu-3 [12], 10000 nM	–	–	111	–	–
HepG2 [10], 1 nM	–	–	111	–	–
HepG2 [10], 10 nM	–	–	89.8	–	–
HepG2 [10], 100 nM	–	–	95.8	–	–
HepG2 [10], 1000 nM	–	–	89.2	–	–
HepG2 [10], 10000 nM	–	–	5.3	–	–
U2OS [11], 1 nM	–	–	99	–	–
U2OS [11], 10 nM	–	–	95.5	–	–
U2OS [11], 100 nM	–	–	104	–	–
U2OS [11], 1000 nM	–	–	95.2	–	–
U2OS [11], 10000 nM	–	–	3.5	–	–
Vero E6 [13], 1 nM	–	–	92.9	–	–
Vero E6 [13], 10 nM	–	–	102	–	–
Vero E6 [13], 100 nM	–	–	95.4	–	–
Vero E6 [13], 1000 nM	–	–	105	–	–
Vero E6 [13], 10000 nM	–	–	0.9	–	–
[6], 0.1 µM	–	–	–	0.26	–
[6], 0.3 µM	–	–	–	0.37	–
[6], 1 µM	–	–	–	0.6	–
[6], 3 µM	–	–	–	0.68	–
[7], 0.1 µM	99	–	–	–	–
[7], 0.3 µM	102	–	–	–	–
[7], 1 µM	85	–	–	–	–
[7], 3 µM	18	–	–	–	–
[15], 0.1 µM	–	111	–	–	–
[15], 0.3 µM	–	105	–	–	–
[15], 1 µM	–	110	–	–	–
[15], 3 µM	–	108	–	–	–

drug-induced phospholipidosis [%], A549-ACE2 [9]
Details	0.3 µM	0.833333 µM	3.33333 µM	6.66667 µM	10 µM
24 h	3.77	15.4	149	143	136
48 h	2.54	6.25	111	164	208
72 h	3.51	1.18	69.5	69.5	200

C[C@@H]1CN(CCCn2c3ccccc3c3ccccc32)C[C@H](C)N1 [rimcazole]
Details	drug sensitivity score	relative viability EC50 [µM]
Caco-2 [5]	0.2	–
Caco-2 [20]	–	> 10
Calu-3 [3]	3.5	–
HepG2 [1]	0.6	–
HepG2 [16]	–	> 10
U2OS [2]	0	–
U2OS [17]	–	> 10
Vero E6 [4]	0.7	–
Vero E6 [19]	–	> 10

Details	SARS-CoV-2 infection rate [%]	cell count [%]	cell viability [%]	morphology score	phospholipidosis EC50 [µM]
A549-ACE2 [8], 24 h	–	–	–	–	2.9
A549-ACE2 [8], 48 h	–	–	–	–	5.12
A549-ACE2 [8], 72 h	–	–	–	–	5.72
Caco-2 [14], 1 nM	–	–	96	–	–
Caco-2 [14], 10 nM	–	–	99.5	–	–
Caco-2 [14], 100 nM	–	–	93.4	–	–
Caco-2 [14], 1000 nM	–	–	90.8	–	–
Caco-2 [14], 10000 nM	–	–	87	–	–
Calu-3 [12], 1 nM	–	–	103	–	–
Calu-3 [12], 10 nM	–	–	88.6	–	–
Calu-3 [12], 100 nM	–	–	100	–	–
Calu-3 [12], 1000 nM	–	–	90.2	–	–
Calu-3 [12], 10000 nM	–	–	60.1	–	–
HepG2 [10], 1 nM	–	–	106	–	–
HepG2 [10], 10 nM	–	–	105	–	–
HepG2 [10], 100 nM	–	–	98	–	–
HepG2 [10], 1000 nM	–	–	106	–	–
HepG2 [10], 10000 nM	–	–	76.4	–	–
U2OS [11], 1 nM	–	–	100	–	–
U2OS [11], 10 nM	–	–	98.1	–	–
U2OS [11], 100 nM	–	–	105	–	–
U2OS [11], 1000 nM	–	–	96.8	–	–
U2OS [11], 10000 nM	–	–	96.4	–	–
Vero E6 [13], 1 nM	–	–	97.9	–	–
Vero E6 [13], 10 nM	–	–	97.9	–	–
Vero E6 [13], 100 nM	–	–	94.4	–	–
Vero E6 [13], 1000 nM	–	–	98.2	–	–
Vero E6 [13], 10000 nM	–	–	81.7	–	–
[6], 0.3 µM	–	–	–	0.08	–
[6], 3 µM	–	–	–	0.76	–
[6], 10 µM	–	–	–	0.81	–
[6], 30 µM	–	–	–	0.11	–
[7], 0.3 µM	104	–	–	–	–
[7], 3 µM	43	–	–	–	–
[7], 10 µM	13	–	–	–	–
[7], 30 µM	41	–	–	–	–
[15], 0.3 µM	–	108	–	–	–
[15], 3 µM	–	122	–	–	–
[15], 10 µM	–	117	–	–	–
[15], 30 µM	–	101	–	–	–

drug-induced phospholipidosis [%], A549-ACE2 [9]
Details	0.3 µM	0.833333 µM	3.33333 µM	6.66667 µM	10 µM	30 µM
24 h	4.49	10.3	68.5	99.3	102	118
48 h	7.19	8.94	52.5	90.8	105	135
72 h	8.99	8.76	45.8	87	106	137
